This is an account of results in ChEMBL document CHEMBL5252576, “Stictamycin, an Aromatic Polyketide Antibiotic Isolated from a New Zealand Lichen-Sourced Streptomyces Species” (2023).

Format in all cases: functional
Details in all cases: time 16-20 hrs

Experiment [1] deals with Bacillus subtilis. Put plainly: Antibacterial activity against Bacillus subtilis E168 assessed as inhibition of bacterial growth incubated for 16 to 20 hrs by Mueller-Hinton broth based two-fold serial dilution method.
The test system of experiment [2] is Staphylococcus aureus. Put plainly: Antibacterial activity against Staphylococcus aureus assessed as inhibition of bacterial growth incubated for 16 to 20 hrs by Mueller-Hinton broth based two-fold serial dilution method.
Experiment [3] relates to Escherichia coli. Put plainly: Antibacterial activity against TolC-deficient Escherichia coli assessed as inhibition of bacterial growth incubated for 16 to 20 hrs by Mueller-Hinton broth based two-fold serial dilution method.

In brackets after ≈: the same amount, converted by molar mass.

For the compound `CC[C@]1(O)CC(=O)c2c(cc3cccc(O)c3c2O)[C@H]1C(C)=O`, the MIC in experiment [1] was 32 µg/mL (≈ 102 µM); in experiment [2], 2 µg/mL (≈ 6.36 µM); in experiment [3], 32 µg/mL (≈ 102 µM).

As to `NC[C@H]1O[C@H](O[C@H]2[C@H](O)[C@@H](O[C@H]3O[C@H](CO)[C@@H](O)[C@H](N)[C@H]3O)[C@H](N)C[C@@H]2N)[C@H](O)[C@@H](O)[C@@H]1O` [KANAMYCIN], the MIC in experiment [1] came to 2 µg/mL (≈ 4.13 µM); in experiment [2], 1 µg/mL (≈ 2.06 µM); in experiment [3], 2 µg/mL (≈ 4.13 µM).

As usually defined, the MIC is the least concentration at which growth counts as inhibited.
